Source: patent US12636297B2, “Boronic acid derivatives and therapeutic uses thereof” (priority 2019, dated 2026)
Where two headings read alike, the source gives them in different places.

Assays:
[1] = test system: carbapenem-resistant (CR) Acinetobacter baumannii (AB); assay: Broth microdilution MIC of β-lactams alone and with Compound 1 against carbapenem-resistant Acinetobacter baumannii clinical isolates; format: cell-based; details: Compound 1 at fixed 4 μg/mL; for % susceptible, [S]: breakpoints MER ≤8 μg/mL, TOL ≤4 μg/mL
Experimental: (§1) In this example the in vitro activity of Compound 1 was evaluated in combination with several β-lactams including sulbactam, meropenem, and ceftolozane against clinical isolates of carbapenem-resistant (CR) Acinetobacter baumannii (AB) and Pseudomonas aeruginosa (PA).

[2] = test system: Pseudomonas aeruginosa (PA); assay: Broth microdilution MIC of β-lactams alone and with Compound 1 against Pseudomonas aeruginosa clinical isolates (representative and challenge panels); format: cell-based; details: for MIC Distribution, % of isolates: Compound 1 at 8 μg/mL; for MIC Distribution, % of isolates / Minimum Inhibitory Concentration Distribution, % of isolates: AVI and TAZ at 4 μg/mL; for Minimum Inhibitory Concentration Distribution, % of isolates: representative panel of PA (N = 500), without Compound 1; for % susceptible, [S] / MIC50 / MIC90: Compound 1, AVI, and TAZ at fixed 4 μg/mL; for % susceptible, [S]: breakpoints MER ≤8, TOL ≤4, CAZ ≤8 μg/mL; for MIC50 / MIC90: Pseudomonas aeruginosa
Experimental: as §1

P. aeruginosa = assay: Susceptibility testing of 262 P. aeruginosa strains with meropenem MIC >2 μg/mL; format: cell-based, Pseudomonas aeruginosa; details: Compound 1 at 8 μg/mL, breakpoints ≤8 μg/mL meropenem and cefepime, ≤4 μg/mL ceftolozane, ≤16 μg/mL piperacillin
Experimental: In addition, 509 Carbapenem-Resistant Enterobacteriaceae were tested with meropenem, cefepime, and ceftolozane alone and in combination with Compound 1 at 8 μg/mL. Furthermore, 262 strains of P. aeruginosa with a meropenem MIC>2 μg/mL were tested with meropenem, ceftolozane, cefepime and piperacillin alone and in combination with Compound 1 at 8 μg/mL.
262 strains of P. aeruginosa having a meropenem MIC greater than 2 μg/mL were tested with meropenem, ceftolozane, cefepime and piperacillin alone and Compound 1 at 8 μg/mL.

[3] = test system: carbapenem resistant Enterobacteriaceae (CRE); assay: MIC of antibiotics with Compound 1 against panel of 510 CRE clinical isolates; format: cell-based; details: antibiotic alone
Experimental: In this example, the antibiotics meropenem, cefepime, ceftolozane and cefiderocol, were tested in combination with Compound 1 at 4 μg/ml and 8 μg/ml against a panel of 510 clinical isolates representing various types of carbapenem resistant Enterobacteriaceae (CRE). Cefiderocol was tested at standard conditions, in […] media.

[4] = test system: carbapenem resistant Acinetobacter baumannii; assay: MIC of antibiotics with Compound 1 against panel of 503 carbapenem resistant Acinetobacter baumannii clinical isolates; format: cell-based; details: carbapenem resistant Acinetobacter baumannii (N = 503); antibiotic alone
Experimental: In another experiment, various antibiotics, meropenem, cefepime, ceftolozane and cefiderocol, were tested in combination with Compound 1 at 4 μg/ml and 8 μg/ml against the panel of 503 clinical isolates of carbapenem resistant Acinetobacter baumannii. […] Cefiderocol was tested at standard conditions, in […] media.

[5] = non-carbapenemase producing CRE, N = 45

## C[C@@H](O)[C@H]1C(=O)N2C(C(=O)O)=C(S[C@@H]3CN[C@H](C(=O)N(C)C)C3)[C@H](C)[C@H]12 [MER, meropenem]
[1]; AB CP (100), defined carbapenemases
  % susceptible, [S]: (0.0) %
[1]; Acinetobacter baumannii, AB CP (100), defined carbapenemases, read-out: MIC50
  MIC50: > 32 µg/mL
[1]; Acinetobacter baumannii, AB CP (100), defined carbapenemases, read-out: MIC90
  MIC90: > 32 µg/mL
[1]; CRAB (300)
  MIC50: >32/>32 μg/mL
  MIC90: >32/>32 μg/mL
  % susceptible, [S]: (1.0) %
[2]; MIC 0.125 μg/mL, PA CAZ-AVI R (CAZ-AVI >8 μg/mL)
  MIC Distribution, % of isolates: .3%
[2]; MIC 0.125 μg/mL, PA MER NS (MER >2 μg/mL), N = 612
  MIC Distribution, % of isolates: 0.0%
[2]; MIC 0.125 μg/mL, PA TOL-TAZ NS (TOL-TAZ >4 μg/mL)
  MIC Distribution, % of isolates: 1.3%
[2]; MIC 0.125 μg/mL
  Minimum Inhibitory Concentration Distribution, % of isolates: 14.2%
[2]; MIC 0.25 μg/mL, PA CAZ-AVI R (CAZ-AVI >8 μg/mL)
  MIC Distribution, % of isolates: .6%
[2]; MIC 0.25 μg/mL, PA MER NS (MER >2 μg/mL), N = 612
  MIC Distribution, % of isolates: .0%
[2]; MIC 0.25 μg/mL, PA TOL-TAZ NS (TOL-TAZ >4 μg/mL)
  MIC Distribution, % of isolates: 2.7%
[2]; MIC 0.25 μg/mL
  Minimum Inhibitory Concentration Distribution, % of isolates: 33.0%
[2]; MIC 0.5 μg/mL, PA CAZ-AVI R (CAZ-AVI >8 μg/mL)
  MIC Distribution, % of isolates: .2%
[2]; MIC 0.5 μg/mL, PA MER NS (MER >2 μg/mL), N = 612
  MIC Distribution, % of isolates: .0%
[2]; MIC 0.5 μg/mL, PA TOL-TAZ NS (TOL-TAZ >4 μg/mL)
  MIC Distribution, % of isolates: 3.7%
[2]; MIC 0.5 μg/mL
  Minimum Inhibitory Concentration Distribution, % of isolates: 51.0%
[2]; MIC 1 μg/mL, PA CAZ-AVI R (CAZ-AVI >8 μg/mL)
  MIC Distribution, % of isolates: .5%
[2]; MIC 1 μg/mL, PA MER NS (MER >2 μg/mL), N = 612
  MIC Distribution, % of isolates: .0%
[2]; MIC 1 μg/mL, PA TOL-TAZ NS (TOL-TAZ >4 μg/mL)
  MIC Distribution, % of isolates: 6.0%
[2]; MIC 1 μg/mL
  Minimum Inhibitory Concentration Distribution, % of isolates: 66.2%
[2]; MIC 2 μg/mL, PA CAZ-AVI R (CAZ-AVI >8 μg/mL)
  MIC Distribution, % of isolates: .8%
[2]; MIC 2 μg/mL, PA MER NS (MER >2 μg/mL), N = 612
  MIC Distribution, % of isolates: .0%
[2]; MIC 2 μg/mL, PA TOL-TAZ NS (TOL-TAZ >4 μg/mL)
  MIC Distribution, % of isolates: 8.7%
[2]; MIC 2 μg/mL
  Minimum Inhibitory Concentration Distribution, % of isolates: 73.2%
[2]; MIC 4 μg/mL, PA CAZ-AVI R (CAZ-AVI >8 μg/mL)
  MIC Distribution, % of isolates: 1.0%
[2]; MIC 4 μg/mL, PA MER NS (MER >2 μg/mL), N = 612
  MIC Distribution, % of isolates: .5%
[2]; MIC 4 μg/mL, PA TOL-TAZ NS (TOL-TAZ >4 μg/mL)
  MIC Distribution, % of isolates: 13.7%
[2]; MIC 4 μg/mL
  Minimum Inhibitory Concentration Distribution, % of isolates: 79.8%
[2]; MIC 8 μg/mL, PA CAZ-AVI R (CAZ-AVI >8 μg/mL)
  MIC Distribution, % of isolates: 8.2%
[2]; MIC 8 μg/mL, PA MER NS (MER >2 μg/mL), N = 612
  MIC Distribution, % of isolates: 7.5%
[2]; MIC 8 μg/mL, PA TOL-TAZ NS (TOL-TAZ >4 μg/mL)
  MIC Distribution, % of isolates: 22.1%
[2]; MIC 8 μg/mL
  Minimum Inhibitory Concentration Distribution, % of isolates: 84.8%
[2]; MIC 16 μg/mL, PA CAZ-AVI R (CAZ-AVI >8 μg/mL)
  MIC Distribution, % of isolates: 8.9%
[2]; MIC 16 μg/mL, PA MER NS (MER >2 μg/mL), N = 612
  MIC Distribution, % of isolates: 6.7%
[2]; MIC 16 μg/mL, PA TOL-TAZ NS (TOL-TAZ >4 μg/mL)
  MIC Distribution, % of isolates: 32.8%
[2]; MIC 16 μg/mL
  Minimum Inhibitory Concentration Distribution, % of isolates: 90.4%
[2]; MIC 32 μg/mL, PA CAZ-AVI R (CAZ-AVI >8 μg/mL)
  MIC Distribution, % of isolates: 3.2%
[2]; MIC 32 μg/mL, PA MER NS (MER >2 μg/mL), N = 612
  MIC Distribution, % of isolates: 0.4%
[2]; MIC 32 μg/mL, PA TOL-TAZ NS (TOL-TAZ >4 μg/mL)
  MIC Distribution, % of isolates: 58.2%
[2]; MIC 32 μg/mL
  Minimum Inhibitory Concentration Distribution, % of isolates: 95.4%
[2]; MIC >32 μg/mL, PA CAZ-AVI R (CAZ-AVI >8 μg/mL)
  MIC Distribution, % of isolates: 100.0%
[2]; MIC >32 μg/mL, PA MER NS (MER >2 μg/mL), N = 612
  MIC Distribution, % of isolates: 100.0%
[2]; MIC >32 μg/mL, PA TOL-TAZ NS (TOL-TAZ >4 μg/mL)
  MIC Distribution, % of isolates: 100.0%
[2]; MIC >32 μg/mL
  Minimum Inhibitory Concentration Distribution, % of isolates: 100.0%
[2]; MIC ≤0.06 μg/mL
  Minimum Inhibitory Concentration Distribution, % of isolates: 4.8%
[2]; MIC ≥0.06 μg/mL, PA CAZ-AVI R (CAZ-AVI >8 μg/mL)
  MIC Distribution, % of isolates: .3%
[2]; MIC ≥0.06 μg/mL, PA MER NS (MER >2 μg/mL), N = 612
  MIC Distribution, % of isolates: 0.0%
[2]; MIC ≥0.06 μg/mL, PA TOL-TAZ NS (TOL-TAZ >4 μg/mL)
  MIC Distribution, % of isolates: 0.3%
[2]; PA (CAZ-AVI MIC >8) (37)
  % susceptible, [S]: (18.9) %
  MIC50: 32 µg/mL
  MIC90: > 32 µg/mL
[2]; PA (Challenge, 652)
  % susceptible, [S]: (31.9) %
  MIC50: 16 µg/mL
  MIC90: > 32 µg/mL
[2]; PA (MER MIC >2) (612)
  % susceptible, [S]: (27.5) %
  MIC50: 32 µg/mL
  MIC90: > 32 µg/mL
[2]; PA (Representative, 500)
  % susceptible, [S]: (84.8) %
  MIC50: 0.5 µg/mL
  MIC90: 16 µg/mL
[2]; PA (TOL-TAZ MIC >4) (39)
  % susceptible, [S]: (21.1) %
  MIC50: 32 µg/mL
  MIC90: > 32 µg/mL
P. aeruginosa; All strains (N = 262), meropenem MIC >2 μg/mL
  % of susceptible organisms at breakpoints: 42%
P. aeruginosa; MBL (N = 56)
  % of susceptible organisms at breakpoints: 7%
P. aeruginosa; No MBL (N = 206)
  % of susceptible organisms at breakpoints: 51%
[3]; CRE KPC, N = 168
  MIC50: 32 µg/mL
  MIC90: > 32 µg/mL
[3]; CRE MBL, N = 145
  MIC50: > 32 µg/mL
  MIC90: > 32 µg/mL
[3]; CRE OXA, N = 152
  MIC50: 32 µg/mL
  MIC90: > 32 µg/mL
[3]; [5]
  MIC50: 8 µg/mL
  MIC90: 16 µg/mL
[4]
  MIC50: > 32 µg/mL
  MIC90: > 32 µg/mL
